# Read-outs that look alike come from different tables or passages of the source.
# Key:
# HeLa cells = test: 2-AG accumulation assay using HeLa cells; assay type: cell-based; conditions: for Emax at 10 µM: Homo sapiens, HeLa cell homogenate, 2-AG accumulation relative to MAFP
# Male Sprague Dawley rats [1] = test: Chronic constriction injury (CCI)-induced model of neuropathic pain, acetone-induced hypersensitivity; assay type: in vivo; conditions: HCl salt, 30 mg/kg oral dosing in 20% HPbCD
# Excerpt: Male Sprague Dawley rats (225-450 g; n=5-8/treatment) were used to evaluate the ability of selected compounds of the Formula (I) to reverse CCI-induced cold hypersensitivity. Four loose ligatures of 4-0 chromic gut were surgically placed around the left sciatic nerve under inhalation anesthesia as described by Bennett et al (Bennett G J, Xie Y K. Pain 1988, 33(1): 87-107). Fourteen to 35 days following CCI surgery, subjects were placed in elevated observation chambers containing wire mesh floors, and five applications of acetone (0.05 mL/application separated by approximately 5 minutes) were spritzed onto the plantar surface of the paw using a multidose syringe. An abrupt withdrawal or lifting of the paw was considered a positive response. The number of positive responses was recorded for each rat over the five trials. Following baseline withdrawal determinations, compounds of formula (I) were administered in an appropriate vehicle, such as hydroxypropyl-β-cyclodextrin (HP β CD), methylcellulose, Methocel, 10% Solutol, or H2O, or the like, by the appropriate route, i.p. or p.o. The number of withdrawals were re-determined 1 to 4 h after compound administration. Results are presented as a percent inhibition of shakes, which was calculated for each subject as [1-(test compound withdrawals/pre-test withdrawals)]×100 and then averaged by treatment.
# rats = test: CFA-induced paw radiant heat hypersensitivity; assay type: in vivo, rat; conditions: HCl salt in 20% HPβCD, treatment time 30 min
# Description: Each rat was placed in a test chamber on a thermally controlled glass surface and allowed to acclimate for approximately 10 min. A radiant thermal stimulus (beam of light) was then focused through the glass onto the plantar surface of the hind paw. The thermal stimulus was automatically shut off by a photoelectric relay when the paw was moved or when the cut-off time was reached (20 sec). An initial (baseline) response latency to the thermal stimulus was recorded for each animal prior to the injection of CFA. 24 h following intraplantar CFA injection, the response latency to the thermal stimulus was then re-evaluated and compared to the animal's baseline response time. […] Immediately following the post-CFA latency assessment, test compound or vehicle (usually solutol, hydroxypropyl methylcellulose, hydroxypropyl beta-cyclodextrin or PEG-400) was administered i.p. or p.o. to rats. Post-compound treatment withdrawal latencies were assessed at fixed time intervals, typically 30, 60 and 120 minutes. The percent reversal of hypersensitivity is calculated according to the following formula: % reversal=(post dose latency-predoselatency)/(baseline (pre CFA) latency-predose latency)×100.
# Compound #12 (as its corresponding HCl salt) was administered in a solution of 20% HPβCD, at a dose of 30 mg/kg, i.p. and a treatment time of 30 min.
# Male Sprague Dawley rats [2] = test: Visceral hyperalgesia model (colorectal distension, zymosan colitis); assay type: in vivo; conditions: 30 mg/kg, s.c.; 20 min after dosing; vehicle-treated rats 239.6±28.9% of control
# Description: This protocol uses barostat-controlled, isobaric colorectal distensions (CRD) in rats to evaluate the potency and efficacy of test compounds in treating visceral hyperalgesia. Male Sprague Dawley rats, weighing 275-350 g, (Charles River Labs) were housed 2-4/cage in a temperature and humidity controlled room with a 12 h/12 h light/dark cycle and ad libitum access to food and water. One day after release from quarantine, rats were acclimated to progressively longer (30 min and, 4 h later, 45 min) periods of simple restraint in plexiglass devices (G-3, rat ECU; Braintree Scientific; Braintree Mass.). The rats were returned to their home cage overnight. […] The balloon pressure, which represents intracolonic pressure, was continuously recorded. […]
# The following morning, colitis was induced by the intracolonic instillation of a 1.5-mL bolus of 2.5% (w/v) zymosan A (from Saccharomyces cerevisiae; Sigma Chemical Co., St. Louis) in 30% ethanol under light 70% CO2: 30% O2 anesthesia. […] The identical CRD stimuli were applied, and manometric VMRs were recorded and analyzed as described for the control phase of the experiment. […] CRD stimuli at 45 mmHg elicited peak responses in the control (pre-zymosan) condition; therefore, the responses of each rat were calculated as a percent of the manometric VMR at that pressure, recorded the day before induction of colitis; thus, each rat served as its own control. […]
# [3] = compound @10 μM (second of two columns with the same head), read-out: Ex. 5 % MAFP @10 μM (second column)
# [4] = compound @10 μM as printed (first of two columns with the same head), read-out: Ex. 5 % MAFP @10 μM (first column)
SMILES,Emax at 10 µM (HeLa cells; [3]),further results
"O=C(c1ccc(-c2ccccc2)cc1)N1CC(N2CCN(c3ncccn3)CC2)C1 [Compound #12, Biphenyl-4-yl-[3-(4-pyrimidin-2-yl-piperazin-1-yl)-azetidin-1-yl]-methanone]",108%,"Emax at 10 µM (HeLa cells; [4]): 63.1%; Percent Inhibition (of shakes) (Male Sprague Dawley rats [1]; pretreatment time 1 hr): 57.1%; Percent Inhibition (of shakes) (Male Sprague Dawley rats [1]; pretreatment time 2 hr): 74.3%; Percent Inhibition (of shakes) (Male Sprague Dawley rats [1]; pretreatment time 3 hr): 80.0%; Percent Inhibition (of shakes) (Male Sprague Dawley rats [1]; pretreatment time 4 hr): 48.6%; reversal of hypersensitivity (rats; 30 mg/kg, i.p.): 90.3%; ED50 (rats; Rattus norvegicus, ip, 0.5 h): 0.9 mg/kg; hyperalgesic response (manometric VMR) to 45 mmHg CRD (Male Sprague Dawley rats [2]): 103.8±22.1 % of control"
"CN(c1ccccc1)c1ccc(C(=O)N2CC(N3CCN(c4ccccn4)CC3)C2)cc1 [compound 18, N-Methyl-N-phenyl-4-{[3-(4-pyridin-2-ylpiperazin-1-yl)azetidin-1-yl]carbonyl}aniline]",66.2%,
"CC(C)n1c(C(F)(F)F)nc2cc(C(=O)N3CC(N4CCN(c5ncccn5)CC4)C3)ccc21 [compound 16, 1-(1-Methylethyl)-5-{[3-(4-pyrimidin-2-ylpiperazin-1-yl)azetidin-1-yl]carbonyl}-2-(trifluoromethyl)-1H-benzimidazole]",91.5%,
"CN(C)c1ccc(C(=O)N2CC(N3CCN(c4ncccn4)CC3)C2)cc1 [compound 28, N,N-Dimethyl-4-{[3-(4-pyrimidin-2-ylpiperazin-1-yl)azetidin-1-yl]carbonyl}aniline]",82.2%,
CCCc1cc2cc(C(=O)N3CC(N4CCN(c5ccccn5)CC4)C3)ccc2n1C [Compound #213],,"Ex. 5 % MAFP @10 μM (HeLa cells; 10 μM compound, 2-AG relative to MAFP, HeLa homogenate): 61.1 % MAFP"
"O=C(c1ccc(OCc2ccccc2)cc1)N1CC(N2CCN(c3ccccn3)CC2)C1 [compound 112, 1-(1-{[4-(Benzyloxy)phenyl]carbonyl}azetidin-3-yl)-4-pyridin-2-ylpiperazine]",79.2%,
"O=C(c1ccc(-c2ccc(F)cc2)cc1)N1CC(N2CCN(c3ncccn3)CC2)C1 [compound 9, 2-(4-{1-[(4′-Fluorobiphenyl-4-yl)carbonyl]azetidin-3-yl}piperazin-1-yl)pyrimidine]",81%,
"O=C(c1ccccc1)c1ccc(C(=O)N2CC(N3CCN(c4ccccn4)CC3)C2)cc1 [compound 74, Phenyl(4-{[3-(4-pyridin-2-ylpiperazin-1-yl)azetidin-1-yl]carbonyl}phenyl)methanone]",29.5%,
"N#Cc1cccnc1N1CCN(C2CN(C(=O)c3ccc(-c4ccccc4)cc3)C2)CC1 [compound 23, 2-(4-[1-(Biphenyl-4-ylcarbonyl)azetidin-3-yl]piperazin-1-yl}pyridine-3-carbonitrile]",96.8%,
"O=C(c1ccc(Oc2ccccc2)cc1)N1CC(N2CCN(c3ncccn3)CC2)C1 [Compound #20, 2-(4-{1-[(4-Phenoxyphenyl)carbonyl]azetidin-3-yl}piperazin-1-yl)pyrimidine]",71.9%,
"O=C(c1ccc(-c2ccccc2)c(F)c1)N1CC(N2CCN(c3ccccn3)CC2)C1 [compound 60, 1-{1-[(2-Fluorobiphenyl-4-yl)carbonyl]azetidin-3-yl}-4-pyridin-2-ylpiperazine]",57.8%,Emax at 10 µM (HeLa cells; [4]): 28.2%
"O=C(c1ccc2nc(C3CCCCC3)oc2c1)N1CC(N2CCN(c3ncccn3)CC2)C1 [compound 10, 2-Cyclohexyl-6-{[3-(4-pyrimidin-2-ylpiperazin-1-yl)azetidin-1-yl]carbonyl}-1,3-benzoxazole]",115%,Emax at 10 µM (HeLa cells; [4]): 97.8%
